Active and inactive are the calls of the source. No cut-off for these calls is given here.

The target in assay [1] is Aurora kinase B (Homo sapiens) (UniProt Q96GD4). In words: Inhibition of Aurora kinase B in human RPE-MYC cells transfected with BCL2 assessed as inhibition of histone H3 phosphorylation at Ser10 residue at 2.5 nM measured after 6 hrs by immunofluorescence staining based analysis. The assay is classed as cell-based.
The target is the same in assay [2]. In words: Disruption of AURKB localization in human RPE-MYC cells transfected with BCL2 assessed as accumulation of polyploid cells with multilobular nuclei at 2.5 nM measured after 48 hrs by immunofluorescence staining based analysis. The assay is classed as cell-based.
Assay [3] has the same target. In words: Disruption of AURKB localization in human RPE-MYC cells transfected with BCL2 assessed as lagging chromosomes in anaphase cells at 2.5 nM measured after 24 hrs by immunofluorescence staining based analysis. It counts as cell-based.
Assay [4] has as its target T1, Aurora kinase A (Homo sapiens) (UniProt O14965).
T1 sequence (whole entry): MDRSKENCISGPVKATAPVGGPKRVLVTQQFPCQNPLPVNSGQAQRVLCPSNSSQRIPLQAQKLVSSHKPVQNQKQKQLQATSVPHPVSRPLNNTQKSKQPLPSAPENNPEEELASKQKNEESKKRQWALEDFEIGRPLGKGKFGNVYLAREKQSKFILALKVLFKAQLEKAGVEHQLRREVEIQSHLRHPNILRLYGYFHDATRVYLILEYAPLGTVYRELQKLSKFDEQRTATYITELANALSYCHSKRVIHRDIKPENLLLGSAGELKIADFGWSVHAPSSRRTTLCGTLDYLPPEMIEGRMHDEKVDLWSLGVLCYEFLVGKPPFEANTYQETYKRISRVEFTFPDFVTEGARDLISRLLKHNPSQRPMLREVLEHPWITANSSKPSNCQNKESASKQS
The experiment in a line: Inhibition of Aurora kinase A in human RPE-MYC cells transfected with BCL2 assessed as inhibition of protein autophosphorylation at Thr288 residue at 160 nM measured after 6 hrs by immunofluorescence staining based analysis. It counts as cell-based.

The target in assay [5] is Aurora kinase B (Homo sapiens) (UniProt Q96GD4). In words: Inhibition of Aurora kinase B in human RPE-MYC cells transfected with BCL2 assessed as inhibition of histone H3 phosphorylation at Ser10 residue at >5 nM measured after 6 hrs by immunofluorescence staining based analysis. The assay is classed as cell-based.
Assay [6] shares this target. In words: Disruption of AURKB localization during anaphase in human NCI-H23 cells at 2.5 nM measured after 24 hrs by immunofluorescence staining based analysis. It counts as cell-based.
In assay [7] the target is T1, Aurora kinase A (Homo sapiens). The experiment in a line: Inhibition of Aurora kinase A in human NCI-H23 cells transfected with BCL2 assessed as inhibition of protein autophosphorylation at Thr288 residue at 2.5 nM measured after 6 hrs by immunofluorescence staining based analysis. It counts as cell-based.
Assay [8] addresses Aurora kinase B (Homo sapiens) (UniProt Q96GD4). In words: Disruption of AURKB localization in human RPE-MYC cells transfected with BCL2 assessed as misaligned chromosomes in metaphase-like cells at 2.5 nM measured after 24 hrs by immunofluorescence staining based analysis. It counts as cell-based.
Assay [9] concerns the target T1, Aurora kinase A (Homo sapiens). The experiment in a line: Inhibition of Aurora kinase A in human RPE-MYC cells transfected with BCL2 assessed as inhibition of protein autophosphorylation at Thr288 residue at 2.5 nM measured after 6 hrs by immunofluorescence staining based analysis. The assay is classed as cell-based.
Assay [10] can be described thus: Induction of mitotic arrest in human RPE-MYC cells transfected with BCL2 assessed as mitotic index at 2.5 nM measured after 24 hrs by DAPI staining based bright field microscopic analysis (reference value: 3.5%). It counts as functional.
Assay [11] addresses Aurora kinase B (Homo sapiens) (UniProt Q96GD4). In words: Inhibition of Aurora kinase B in human NCI-H23 cells transfected with BCL2 assessed as inhibition of histone H3 phosphorylation at Ser10 residue at 2.5 nM measured after 6 hrs by immunofluorescence staining based analysis. It counts as cell-based.
Assay [12] can be described thus: Induction of mitotic arrest in human RPE-MYC cells transfected with BCL2 assessed as mitotic index at 50 nM measured after 24 hrs by DAPI staining based bright field microscopic analysis (reference value: 3.5%). It counts as functional.
For a further assay, the target named is Tubulin (Homo sapiens) (UniProt P68371+Q9H4B7+P0DPH7+P68366+Q13509+Q71U36+P04350+Q3ZCM7+P07437+P68363+Q9BQE3+Q6PEY2+Q13885+Q9BVA1+Q9BUF5). In words: Stabilization of microtubule in human RPE-MYC cells transfected with BCL2 assessed as misaligned chromosomes in metaphase cells at 50 nM measured after 24 hrs by immunofluorescence staining based analysis. It counts as cell-based.

The test system of assay [13] is RPE. In words: Inhibition of actin polymerization in human RPE-MYC cells transfected with BCL2 assessed as chromosome misalignment in metaphase at 2 ug/ml measured after 24 hrs by immunofluorescence staining based analysis. The assay is classed as cell-based. The settings on record: dose 2.0 µg/ml.
The test system of assay [14] is RPE. In words: Inhibition of actin polymerization in human RPE-MYC cells transfected with BCL2 assessed as accumulation of polyploid cells with multilobular nuclei at 2 ug/ml measured after 48 hrs by immunofluorescence staining based analysis. It counts as cell-based. The settings on record: dose 2.0 µg/ml.
The subject of assay [15] is RPE. The experiment in a line: Inhibition of actin polymerization in human RPE-MYC cells transfected with BCL2 assessed as lagging chromosomes in anaphase at 2 ug/ml measured after 24 hrs by immunofluorescence staining based analysis. It counts as cell-based. The settings on record: dose 2.0 µg/ml.
A short description of assay [16]: Induction of mitotic arrest in human RPE-MYC cells transfected with BCL2 assessed as mitotic index at 2 ug/ml measured after 24 hrs by DAPI staining based bright field microscopic analysis (reference value: 3.5%). It counts as functional. Particulars: dose 2 µg/ml.

Sequence of Aurora kinase B (Homo sapiens) (Q96GD4 whole entry): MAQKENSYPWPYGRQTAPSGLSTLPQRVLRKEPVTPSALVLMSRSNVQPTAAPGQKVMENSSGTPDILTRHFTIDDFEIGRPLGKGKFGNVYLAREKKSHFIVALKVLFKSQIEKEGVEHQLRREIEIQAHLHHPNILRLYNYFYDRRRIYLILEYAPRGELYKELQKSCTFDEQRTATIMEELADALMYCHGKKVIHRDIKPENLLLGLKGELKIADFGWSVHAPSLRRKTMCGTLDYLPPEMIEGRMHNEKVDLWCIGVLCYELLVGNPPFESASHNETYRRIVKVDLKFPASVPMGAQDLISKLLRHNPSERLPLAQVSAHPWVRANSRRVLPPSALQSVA

For `Cc1csc(-c2nnc(Nc3ccc(Oc4ncccc4-c4ccnc(N)n4)cc3)c3ccccc23)c1` [AMG-900], the inhibition entry in assay [1], in [7], in assay [9] and in assay [11] was “inactive” each time. In addition, the outcome in [2], in assay [3], in assay [6] and in assay [8] was Active. Moreover, the inhibition in assay [4] came out at 100%. In [5], the inhibition entry was “Active”. In assay [10], the Activity came to 7.8%.
Regarding `CC(=O)O[C@H]1C(=O)[C@@]2(C)[C@H]([C@H](OC(=O)c3ccccc3)[C@]3(O)C[C@H](OC(=O)[C@H](O)[C@@H](NC(=O)c4ccccc4)c4ccccc4)C(C)=C1C3(C)C)[C@]1(OC(C)=O)CO[C@@H]1C[C@@H]2O` [PACLITAXEL], the Activity in assay [12] is reported as 97.3%. The result at Tubulin (Homo sapiens) was inactive.
As for `C=C1[C@@H](C)[C@H]2[C@H](Cc3ccccc3)NC(=O)[C@]23OC(=O)/C=C/[C@H](O)CCC[C@@H](C)C/C=C/[C@H]3[C@@H]1O` [CYTOCHALASIN B], the inhibition result in the assay on RPE [13] and in the assay on RPE [15] was “inactive” in each case. The inhibition entry in the assay with RPE [14] is “Active”. Further, the Activity in [16] is recorded as 2.7%.

(Values after ChEMBL document CHEMBL5385867, “2-Phenoxy-3, 4'-bipyridine derivatives inhibit AURKB-dependent mitotic processes by disrupting its localization” (Eur J Med Chem, 2023).)
